According to patent US20150175585A1, “FUSED QUINONIC COMPOUNDS” (CENTRO ATLANTICO DEL MEDICAMENTO S.A (CEAMED, S.A.), priority 2012, published 2015):
Like-named read-outs stand apart in the source and are kept apart here.

Legend:
[1] = system: STAT5 transcription (pSPI-GLE1-luc) in HEK-GHR cells; test: HEK-GHR STAT5 transcription assay (luciferase reporter, rhGH stimulated); assay type: cell-based, human; conditions: compound 45 minutes before 50 nM rhGH, six hours, read-out: Activity (IC50, reduction of luciferase activity)
From the text: Plasmids: The full-length GHR was subcloned into pcDNA1/ampicillin (Invitrogen) as described previously (Ross R J, Esposito N, Shen X Y, et al., Mol Endocrinol 1997, 11:265-73). The pSPI-GLE1 (serine protease inhibitor 2.1 GAS-like element 1)-luc reporter construct was generated by subcloning the Stat5-binding element from serine protease inhibitor gene together with a minimal thymidine kinase promoter into the pGL2 plasmid (Promega), which contains the firefly luciferase cDNA (Wood T J, Sliva D, Lobie P E, et al. J Biol Chem 1995, 270:9448-53).
Cell culture: HEK-GHR cell line was maintained in Dulbecco's Modified Eagle Medium (DMEM)/F12 supplemented with 10% fetal bovine serum (FBS) and 50 U/ml penicillin/50 U/ml streptomycin. The cells were maintained in a humidified incubator with 5% CO2 at 37° C. Cell culture reagents were obtained from PAA laboratories. The HEK-GHR cell line is a stable clone generated and kindly donated by Prof. Richard Ross (Clinical Sciences, Northern General Hospital, Sheffield, UK). Briefly, HEK-GHR cell line was generated in HEK 293 cells (human kidney embryonal cell line) by transfection with the calcium phosphate procedure of the GHR plasmid with pcDNA3/Neo (Invitrogen). Selection was made using G418 (400 ug/ml, Sigma) (Maamra M, Finidori J, Von Laue S, et al., J Biol Chem 1999, 274(21):14791-8).
Luciferase reporter assay: Transcription assays were performed in HEK-GHR. The HEK-GHR cells were co-transfected with Stat5 luciferase (pSPI-GLE1-luc) reporter vector together with a plasmid constitutively expressing beta-galactosidase by using Metafectene Pro as described by the manufacturer (Biontex Laboratories GmbH, Munich, Germany). Following transfection, HEK-GHR cells were serum-starved for 20 h. Cells were then treated with vehicle (0.1% DMSO) or the indicated compound for 45 minutes prior to the addition of 50 nM recombinant human Growth Hormone (rhGH) (Norditropin, Novo Nordisk) to the medium. Six hours following rhGH addition, cells were harvested with Passive Lysis Buffer (Promega), and levels of luciferase were measured using Luciferase Assay System as described by the manufacturer (Promega). The Galacto-Light Plus System (Applied Biosystems) was used to measure beta-galactosidase activity.
Statistical analysis. The concentration of drug that provokes 50% reduction of luciferase activity (IC50) was determined by using non-linear regression analysis and data were fitted to a log concentration vs normalized response curve in GraphPad software v5 (San Diego, Calif.).

STAT5 = STAT5 phosphorylation western blot assay; assay type: cell-based, human; conditions: 10 microM, HEL or K562 cells (table does not say which)
Description: (§1) The Human Erythroleukemia cell line HEL and the human Chronic Myeloid Leukemia cell line K562 were cultured in RPM I 1640 medium containing 10% fetal bovine serum (FBS) and 50 U/ml penicillin/50 U/ml streptomycin at 37° C. in a 5% CO2 humidified atmosphere to a density of 300.000 viable cells/mL in presence of WP1066 (positive control of phosphorylation inhibition) (Verstovsek et al., 2008) or CM-363 at concentrations of 1, 5 and 10 μM. Cell culture reagents were all obtained from BioWhittaker® (Lonza, Verniers, Belgium). Cell growth and viability was determined by propidium iodide (fluorescent dye) exclusion method using the Accuchip 4× Counting Kit and the ADAM automatic cell counter (Digital-Bio, NanoEntek, Ic., Washington St, Mass., USA).As a control of unspecific phosphorylation, some cells in each experiment were exposed to vehicle (negative control of phosphorylation inhibition) (0.1% DMSO).
(§2) For total protein extraction, cells were scraped with RIPA 1× lysis buffer (25 mM Tris-HCl pH 7.6, 150 mM NaCl, 1% NP-40, 1% sodium deoxycholate, 0.1% SDS, no. 89900, Thermo Scientific, Rockford, Ill., USA) supplemented with 1× protease and 1× phosphatase inhibitor cocktails (100× Halt™ Protease Inhibitor Cocktail, no. 87786 and 100× Halt Phosphatase Inhibitor Cocktail, no. 78420, both from Thermo Scientific, Rockford, Ill., USA). An aliquot of each extract was preserved for protein quantification by bicinchoninic acid assay (Pierce® BCA Protein Assay Kit, no. 23225, Thermo Scientific, Rockford, Ill., USA).
(§3) Proteins were solubilized in sample buffer containing 0.0625 M Tris-HCl, pH 6.8, 2.3% (wt/vol) SDS, 10% (vol/vol) glycerol, 5% (vol/vol) f3-mercaptoethanol, and 0.001% (wt/vol) bromophenol blue and boiled at 95° C. for 5 min. Equal amounts (50 μg) of each sample were electrophoresed on 8-10% sodium dodecyl sulfate-polyacrylamide gel electrophoresis (SDS-PAGE) and transferred to nitrocellulose membranes (iBlot® Gel Transfer Stacks, Nitrocellulose, no. IB4010-02, Invitrogen, Barcelona, Spain) as described previously (Fernandez, L, et al., Endocrinology, 13, 1815-1824, 1998; B. Guerra et al., J. Neurochem, 91, 99-109, 2004; B. Guerra et al., J. Appl. Physiol., 102, 1786-1792, 2007; B. Guerra et al., J. Appl. Physiol., 111, 715-725, 2011). The nitrocellulose membranes were then removed from the iBlot® Dry GelTransfer Device (no. IB1001EU, Invitrogen, Barcelona, Spain) and placed in a Ponceau S staining solution (0.5% Ponceau S and 1% glacial acetic acid in water) to verify equal loading of protein in the control and treated samples. After the membranes were stained for 5 min, they were rinsed for 2 min and examined. Equal loading of protein was verified, and the membranes were rinsed for an additional 10 min and immunoscreened. Membranes were blocked with 5% blotting grade blocker nonfat dry milk in Tris Buffered Saline with 0.05% Tween 20 (TBST; blotto-blocking buffer) for at least […]) at room temperature. They were washed thrice in TBS with 0.1% Tween 20 (TBST-0.1). Next, the membranes were incubated over night at 4° C. with the appropriate anti-phospho-antibodies (described below) all diluted (1:1000) in 1% bovine serum albumin (BSA)-1% blotto in TBST (BSA-blotto blocking buffer). […] Membranes were stripped of bound antibodies by incubation in stripping buffer (Restore™ Western Blot Stripping Buffer, no. 21059, Thermo Scientific, Rockford, Ill., USA) at room temperature for 30 min with agitation. Membranes were washed for 3×10 min in TBST-0.1, blocked with blotto-blocking buffer for at least 1 h and re-probed with the corresponding anti-total kinase antibodies (described below) all diluted (1:1000) in blotto-blocking buffer. […]

HEL cells = test: HEL-based MTT cell viability assay; set-up: species or system human; conditions: 48 h, read-out: Activity (IC50, reduction of cell viability)
Description: Cell viability was assayed by measuring the mitochondrial reduction of the tetrazolium salt 3-(4,5-methyltiazol-2yl)-2,5diphenyl-tetrazolium bromide] (MTT) (Applichen; A2231,0010) (Mosmann T. J Immunol Methods. 1983 16; 65(1-2):55-63; Chuan Y-C et al 2010. Oncogene. 29 (10), 1531-1542. Cells were seeded in 96-well plates in medium supplemented with 10% FBS (Lonza Cat. No: 14-502F), 2 mM L-Glut (Lonza Cat. No: BE17-605E) and 100 U/ml PEST (Lonza Cat. No: DE17-605E) at a cell density of 5000-20000 cells/well. Cells were seeded at a density according to their exponential growth phase. Vehicle (0.05% DMSO) or drug were added to culture medium at the indicated concentrations (10 to 0.01 microM) during 48 h. Then, MTT (0.3 mg/ml) was added to cells following by incubation for 2-4 h at 37° C. in the dark. The medium was then discarded and the formazan precipitate was solubilized by addition of 20% SDS (Sigma; L-5750) in 0.02N HCl (Panreac; 131020.1611) for 12-16 h. The optical density was measured at 595 nm with the iMark Microplate Reader (BioRad, USA). Data was expressed as percent growth above the level in controls and the results in figures were plotted as means±SEM of each test point from 3 replicates.
Statistical analysis. The concentration of drug that provokes 50% reduction of cell viability (IC50) was determined by using non-linear regression analysis and data were fitted to a log concentration vs normalized response curve in GraphPad software v5 (San Diego, Calif.).

JAK2 = JAK2 phosphorylation western blot assay; assay type: cell-based, human; conditions: 10 microM, HEL or K562 cells (table does not say which)
Description: as §1, §2, §3

SMILES	IC50 [1] [nM]	Activity (inhibition of STAT5 phosphorylation) (STAT5)	IC50 (HEL cells) [nM]	Activity (inhibition of JAK2 phosphorylation) (JAK2)	IC50 ([1]; Homo sapiens) [nM]	IC50 (HEL cells; Homo sapiens) [nM]
CC1(C)CC(=O)C2=C(C1)NC1=C(C(=O)c3cn[nH]c3C1=O)C2c1ccccc1 (stereo not shown) [Compound 5]	< 5000	+ (+represents an inhibition at 10 microM > 50%)	< 3000	+ (+represents an inhibition at 10 microM > 30%)	–	–
O=C1CCCC2=C1C(c1cccs1)C1=C(N2)C(=O)c2ccccc2C1=O (stereo not shown) [Compound 6, 12-(thiophen-2-yl)-3,4-dihydrobenzo[b]acridine-1,6,11(2H,5H,12H)-trione]	–	++ (++represents an inhibition at 10 microM > 50%)	–	+ (+represents an inhibition at 10 microM > 30%)	< 5000	< 3000
CC1(C)CC(=O)C2=C(C1)OC1=C(C(=O)c3ccccc3C1=O)C2c1cccs1 (stereo not shown) [Compound 7, 3,3-dimethyl-12-(thiophen-2-yl)-3,4-dihydro-1H-benzo[b]xanthene-1,6,11(2H,12H)-trione]	–	+++ (+++represents an inhibition at 10 microM > 75%)	–	+++ (+++represents an inhibition at 10 microM > 75%)	< 1000	< 10000
CC1(C)CC(=O)C2=C(C1)NC1=C(C(=O)c3ncncc3C1=O)C2c1ccccc1 (stereo not shown) [Compound 8]	< 5000	+ (+represents an inhibition at 10 microM > 50%)	< 3000	+++ (+++represents an inhibition at 10 microM > 75%)	–	–
O=C1CCCC2=C1C(c1ccc(Br)cc1)C1=C(O2)C(=O)c2ccccc2C1=O (stereo not shown) [Compound 10]	< 1000	+ (+represents an inhibition at 10 microM > 50%)	< 3000	++ (++represents an inhibition at 10 microM > 50%)	–	–
O=C1CCCC2=C1C(c1ccccn1)C1=C(O2)C(=O)c2ccccc2C1=O (stereo not shown) [Compound 11, 12-(pyridin-2-yl)-3,4-dihydro-1H-benzo[b]xanthene-1,6,11(2H,12H)-trione]	–	+ (+represents an inhibition at 10 microM > 50%)	–	–	< 1000	< 10000
CC1(C)CC(=O)C2=C(C1)OC1=C(C(=O)c3ccccc3C1=O)C2c1ccccn1 (stereo not shown) [Compound 12]	< 1000	++ (++represents an inhibition at 10 microM > 50%)	< 3000	++ (++represents an inhibition at 10 microM > 50%)	–	–
COc1ccc(C2C3=C(CCCC3=O)OC3=C2C(=O)c2ccccc2C3=O)cc1OC (stereo not shown) [Compound 15]	< 10000	++ (++represents an inhibition at 10 microM > 50%)	< 1000	++ (++represents an inhibition at 10 microM > 50%)	–	–
O=C1CCCC2=C1C(c1cccnc1)C1=C(N2)C(=O)c2ccccc2C1=O (stereo not shown) [Compound 17]	< 5000	+ (+represents an inhibition at 10 microM > 50%)	< 3000	+++ (+++represents an inhibition at 10 microM > 75%)	–	–
CC1(C)CC(=O)C2=C(C1)NC1=C(C(=O)c3ccccc3C1=O)C2c1cnc(Cl)nc1 (stereo not shown) [Compound 19]	< 5000	–	< 3000	++ (++represents an inhibition at 10 microM > 50%)	–	–
CC1(C)CC(=O)C2=C(C1)OC1=C(C(=O)c3ccccc3C1=O)C2c1ccco1 (stereo not shown) [Compound 20, 12-(furan-2-yl)-3,3-dimethyl-3,4-dihydro-1H-benzo[b]xanthene-1,6,11(2H,12H)-trione]	–	++ (++represents an inhibition at 10 microM > 50%)	–	+++ (+++represents an inhibition at 10 microM > 75%)	< 1000	< 1000
CC1(C)CC(=O)C2=C(C1)OC1=C(C(=O)c3ccccc3C1=O)C2c1ccoc1 (stereo not shown) [Compound 21]	< 1000	++ (++represents an inhibition at 10 microM > 50%)	< 3000	+ (+represents an inhibition at 10 microM > 30%)	–	–
